From ChEMBL document CHEMBL6115029, “Discovery of Daraxonrasib (RMC-6236), a Potent and Orally Bioavailable RAS(ON) Multi-selective, Noncovalent Tri-complex Inhibitor for the Treatment of Patients with Multiple RAS-Addicted Cancers” (J Med Chem, 2025)
Converted amounts (≈) assume the structure as drawn. One block for each compound: values may come before it.

What was measured:
[1] = biological target: Peptidyl-prolyl cis-trans isomerase A (Homo sapiens, UniProt P62937); experiment: Binding affinity to Avi-tagged Cyclophilin A (unknown origin) assessed as dissociation constant by SPR analysis
Peptidyl-prolyl cis-trans isomerase A, sequence (P62937 whole entry, the tested form may be a part): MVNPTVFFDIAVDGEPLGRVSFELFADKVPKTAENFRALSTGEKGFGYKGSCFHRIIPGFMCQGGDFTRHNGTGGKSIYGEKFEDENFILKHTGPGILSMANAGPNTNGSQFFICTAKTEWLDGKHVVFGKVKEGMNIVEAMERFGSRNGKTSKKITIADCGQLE

[2] = Binding affinity to Cyclophilin A/Avi-tagged KRAS G12V mutant (1 to 169 residues) (unknown origin) assessed as dissociation constant by SPR analysis; design: species or system Homo sapiens
[3] = Binding affinity to Cyclophilin A/Avi-tagged KRAS G12D mutant (1 to 169 residues) (unknown origin) assessed as dissociation constant by SPR analysis; design: species or system Homo sapiens
[4] = Binding affinity to Cyclophilin A/Avi-tagged KRAS G12C mutant (1 to 169 residues) (unknown origin) assessed as dissociation constant by SPR analysis; design: species or system Homo sapiens
[5] = Inhibition of 6His-tagged KRAS G12V mutant(1 to 169 residues)/GST-tagged GMPPNP-bound BRAF RBD (155 to 229 reisudes)/Cyclophilin A (unknown origin) tri-complex protein-protein interaction incubated for 3 hrs by TR-FERT based disruption assay; design: species or system Homo sapiens
[6] = Inhibition of 6His-tagged KRAS G12D mutant(1 to 169 residues)/GST-tagged GMPPNP-bound BRAF RBD (155 to 229 reisudes)/Cyclophilin A (unknown origin) tri-complex protein-protein interaction incubated for 3 hrs by TR-FERT based disruption assay; design: species or system Homo sapiens
[7] = Inhibition of 6His-tagged KRAS G12C mutant(1 to 169 residues)/GST-tagged GMPPNP-bound BRAF RBD (155 to 229 reisudes)/Cyclophilin A (unknown origin) tri-complex protein-protein interaction incubated for 3 hrs by TR-FERT based disruption assay; design: species or system Homo sapiens
[8] = Inhibition of 6His-tagged KRAS G12R mutant(1 to 169 residues)/GST-tagged GMPPNP-bound BRAF RBD (155 to 229 reisudes)/Cyclophilin A (unknown origin) tri-complex protein-protein interaction incubated for 3 hrs by TR-FERT based disruption assay; design: species or system Homo sapiens
[9] = Inhibition of 6His-tagged KRAS G61H mutant(1 to 169 residues)/GST-tagged GMPPNP-bound BRAF RBD (155 to 229 reisudes)/Cyclophilin A (unknown origin) tri-complex protein-protein interaction incubated for 3 hrs by TR-FERT based disruption assay; design: species or system Homo sapiens
[10] = Inhibition of 6His-tagged NRAS G61K mutant(1 to 169 residues)/GST-tagged GMPPNP-bound BRAF RBD (155 to 229 reisudes)/Cyclophilin A (unknown origin) tri-complex protein-protein interaction incubated for 3 hrs by TR-FERT based disruption assay; design: species or system Homo sapiens
[11] = Inhibition of 6His-tagged wildtype KRAS (1 to 169 residues)/GST-tagged GMPPNP-bound BRAF RBD (155 to 229 reisudes)/Cyclophilin A (unknown origin) tri-complex protein-protein interaction incubated for 3 hrs by TR-FERT based disruption assay; design: species or system Homo sapiens
[12] = Inhibition of 6His-tagged wildtype HRAS (1 to 169 residues)/GST-tagged GMPPNP-bound BRAF RBD (155 to 229 reisudes)/Cyclophilin A (unknown origin) tri-complex protein-protein interaction incubated for 3 hrs by TR-FERT based disruption assay; design: species or system Homo sapiens
[13] = Inhibition of 6His-tagged wildtype NRAS (1 to 169 residues)/GST-tagged GMPPNP-bound BRAF RBD (155 to 229 reisudes)/Cyclophilin A (unknown origin) tri-complex protein-protein interaction incubated for 3 hrs by TR-FERT based disruption assay; design: species or system Homo sapiens
CAPAN-1 = experiment: Cytotoxicity against human CAPAN-1 cells harboring KRAS G12V mutant cultured as 2D cells assessed as reduction in cell viability incubated for 120 hrs by CellTiter-Glo luminescence assay; assay type: functional, cell-based; conditions: CAPAN-1, 120 h
ASPC1 = experiment: Cytotoxicity against human ASPC1 cells harboring KRAS G12D mutant cultured as 2D cells assessed as reduction in cell viability incubated for 120 hrs by CellTiter-Glo luminescence assay; assay type: functional, cell-based; conditions: ASPC1, 120 h
NCI-H358 = experiment: Cytotoxicity against human NCI-H358 cells harboring KRAS G12C mutant cultured as 2D cells assessed as reduction in cell viability incubated for 120 hrs by CellTiter-Glo luminescence assay; assay type: functional, cell-based; conditions: NCI-H358, 120 h
NCI-H1975 = experiment: Cytotoxicity against human NCI-H1975 cells harboring wildtype KRAS cultured as 2D cells assessed as reduction in cell viability incubated for 120 hrs by CellTiter-Glo luminescence assay; assay type: functional, cell-based; conditions: NCI-H1975, 120 h
[14] = Inhibition of ERK1/2 phosphorylation in human CAPAN-1 cells harboring KRAS G12V mutant incubated for 4 hrs by AlphaLISA assay; assay type: cell-based; conditions: CAPAN-1, 4 h
[15] = Inhibition of ERK1/2 phosphorylation in human NCI-H358 cells harboring KRAS G12C mutant incubated for 4 hrs by AlphaLISA assay; assay type: cell-based; conditions: NCI-H358, 4 h
[16] = Inhibition of ERK1/2 phosphorylation in human ASPC1 cells harboring KRAS G12D mutant incubated for 4 hrs by AlphaLISA assay; assay type: cell-based; conditions: ASPC1, 4 h
[17] = Metabolic stability in mouse liver microsomes assessed as half-life at 2 uM measured upto 60 mins in presence of NADPH by LC-MS/MS analysis; assay type: ADME, Microsome
A-375 = experiment: Cytotoxicity against human A-375 cells assessed as reduction in cell viability incubated for 120 hrs by CellTiter-Glo luminescence assay; assay type: functional, cell-based; conditions: A-375, 120 h
[18] = Kinetic solubility of compound in PBS at pH 7.4 measured after 5 hrs by UV analysis; assay type: physicochemical; conditions: read-out: Kinetic_solubility
[19] = Apparent permeability across apical to basolateral side in human Caco-2 cells at 5 uM incubated for 2 hrs by LC-MS/MS analysis; assay type: ADME, cell-based
[20] = Efflux ratio of apparent permeability in human Caco-2 cells at 5 uM incubated for 2 hrs by LC-MS/MS analysis; assay type: ADME, cell-based
[21] = Clearance in female BALB/c mouse at 1 mg/kg, iv measured after 24 hrs by LC-MS/MS analysis; assay type: ADME, organism-based; conditions: in vivo
[22] = Half-life in female BALB/c mouse at 1 mg/kg, iv measured after 24 hrs by LC-MS/MS analysis; assay type: ADME, organism-based; conditions: in vivo
[23] = Oral bioavailability in female BALB/c mouse at 10 mg/kg measured after 24 hrs by LC-MS/MS analysis; assay type: ADME, organism-based; conditions: in vivo
[24] = Lipophilicity, logD of compound at pH 7.4 by Agilent 1290 II uPLC analysis; assay type: physicochemical; conditions: buffer
[25] = (§1) In vivo inhibition of MAPK signaling pathway in female BALB/c nude mouse xenografted with human NCI-H441 cells harboring wildtype KRAS/KRAS G12V mutant assessed as decrease in DUSP6 mRNA expression in tumor at 100 mg/kg, po administered as single dose and measured after 2 hrs by qPCR analysis relative to control; assay type: functional
[26] = as §1, with “200” for “100”; assay type: functional

Kd [1]: 0.897 µM
Kd [2]: 5.83 µM
Kd [3]: 3.55 µM
Kd [4]: 2.05 µM
IC50 [5]: 4.4 µM
IC50 [6]: 12.9 µM
IC50 [7]: 1.6 µM
IC50 [8]: 8.4 µM
IC50 [9]: 1.3 µM
IC50 [10]: 3.5 µM
IC50 [11]: 5.1 µM
IC50 [12]: 3.5 µM
IC50 [13]: 3.2 µM
SMILES: CCn1c(-c2cccnc2[C@H](C)OC)c2c3cc(ccc31)-c1cccc(c1)C[C@H](NC(=O)[C@H](C(C)C)N(C)C(=O)[C@H]1CCN(C(C)=O)C1)C(=O)N1CCC[C@H](N1)C(=O)OCC(C)(C)C2
EC50 (CAPAN-1): 0.948 µM
EC50 (ASPC1): 1.86 µM
EC50 (NCI-H358): 1.09 µM
EC50 (NCI-H1975): 1.14 µM

Kd [1]: 0.283 µM
IC50 [6]: 1.16 µM
IC50 [7]: 0.078 µM
IC50 [11]: 0.2 µM
EC50 [14]: 0.003 µM
EC50 [15]: 0.005 µM
EC50 [16]: 0.061 µM
half-life at 2 µM [17]: 19 min
solubility kinetic at 5 h [18]: 12 µM (≈ 10.3 µg/mL)
Papp A→B at 2 h, 5 µM [19]: 0.6 ×10⁻⁶ cm/s
efflux ratio at 2 h, 5 µM [20]: 9.6
clearance [21]: 33.3 mL/min/kg
half-life [22]: 90 min
bioavailability [23]: 17%
logD [24]: 4.8
SMILES: CCn1c(-c2cccnc2[C@H](C)OC)c2c3cc(ccc31)-c1csc(n1)C[C@H](NC(=O)[C@H](C(C)C)N(C)C(=O)N1CC(OC)C1)C(=O)N1CCC[C@H](N1)C(=O)OCC(C)(C)C2
EC50 (CAPAN-1): 0.016 µM
IC50 (ASPC1): 0.076 µM
EC50 (NCI-H358): 0.007 µM
EC50 (NCI-H1975): 0.022 µM
EC50 (A-375): > 10 µM
inhibition in vivo at 100 mg/kg [25]: 87%
inhibition in vivo at 200 mg/kg [26]: 94%
